For two compounds, melting point and IC50 results are on record in patent US7737142B2, “(Thio) carbamoyl-cyclohexane derivatives as D3/D2 receptor antagonists” (Richter Gedeon Vegyeszeti Gyar Rt., priority 2003, dated 2010).

In series [1] the target is T1, D2 receptor (rat brain striatal membrane preparation) (Rattus norvegicus, UniProt P61169).
T1 construct: on rat brain striatal membrane preparation; from tissue; host or cells: rat brain striatum membranes
In words: D2 receptor binding ([3H]-spiperone). As to conditions: rat brain striatal membranes, [3H]-spiperone 0.6 nM; read-out: D2 IC-50.
Description: The non-specific binding was determined in the presence of 1 μM (+)-butaclamol.

Series [2] deals with T2, rat recombinant D3 receptors (expressed in Sf9 cells) (Rattus norvegicus, UniProt P19020).
T2 construct: purchased Packard BioScience, BioSignal Packard Inc. 6110139; host or cells: Sf9 cells
In words: D3 receptor binding ([3H]-spiperone). As to conditions: [3H]-spiperone 0.85 nM, read-out: D3 IC-50.

Series [3] addresses Alpha-1 receptor (rat brain cortical membrane preparation). In words: Alpha-1 receptor binding ([3H]-prasosin). As to conditions: rat brain cortical membranes, [3H]-prasosin 0.5 nM; read-out: Alfa-1 IC-50.
Description: The non-specific binding was determined in the presence of 10 μM phentolamine.

A value given as a limit tells only on which side of the number the result lay.

T1 sequence (P61169 whole entry): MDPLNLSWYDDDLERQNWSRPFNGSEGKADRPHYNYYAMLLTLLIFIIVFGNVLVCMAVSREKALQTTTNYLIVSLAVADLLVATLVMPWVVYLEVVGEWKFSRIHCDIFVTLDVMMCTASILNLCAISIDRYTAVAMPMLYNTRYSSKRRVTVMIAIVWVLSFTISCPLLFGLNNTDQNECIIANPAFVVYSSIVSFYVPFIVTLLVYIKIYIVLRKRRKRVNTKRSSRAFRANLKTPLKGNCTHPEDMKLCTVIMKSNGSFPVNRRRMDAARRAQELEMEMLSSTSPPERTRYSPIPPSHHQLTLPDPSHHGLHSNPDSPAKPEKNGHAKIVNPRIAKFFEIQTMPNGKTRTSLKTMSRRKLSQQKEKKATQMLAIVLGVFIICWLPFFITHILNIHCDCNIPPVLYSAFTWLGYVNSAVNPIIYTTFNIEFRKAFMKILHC
T2 sequence (P19020 whole entry): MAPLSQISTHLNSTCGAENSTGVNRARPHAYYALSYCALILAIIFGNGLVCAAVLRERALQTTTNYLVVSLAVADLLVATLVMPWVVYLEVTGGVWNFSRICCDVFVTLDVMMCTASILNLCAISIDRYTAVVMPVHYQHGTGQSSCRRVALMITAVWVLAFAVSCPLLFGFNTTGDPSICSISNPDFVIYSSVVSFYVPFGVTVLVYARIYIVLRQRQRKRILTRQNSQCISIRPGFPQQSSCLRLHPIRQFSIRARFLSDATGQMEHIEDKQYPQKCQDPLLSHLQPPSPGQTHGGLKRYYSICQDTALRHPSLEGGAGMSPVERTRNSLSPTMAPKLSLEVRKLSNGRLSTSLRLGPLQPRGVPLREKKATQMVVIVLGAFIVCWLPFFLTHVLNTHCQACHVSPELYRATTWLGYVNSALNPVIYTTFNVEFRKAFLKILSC

`CN(C)C(=O)N[C@H]1CC[C@H](CCN2CCCN(c3cccc(Cl)c3Cl)CC2)CC1` [Compound 7, trans-1-{4-[2-[4-(2,3-dichlorophenyl)-hexahydro[1,4]diazepin-1-yl]-ethyl]-cyclohexyl}-3,3-dimethyl-urea] registered a melting point of 168 to 172 °C. Further, in series [1], the IC50 lay within 10 to 50 nM. The IC50 in series [2] was in the range of 1 to 10 nM. In addition, the IC50 in series [3] is more than 200 nM.

Compound `O=C(N[C@H]1CC[C@H](CCN2CCN(c3cccc(Cl)c3Cl)CC2)CC1)N1CCCC1` [Compound 8, trans-N-{4-[2-[4-(2,3-dichlorophenyl)-piperazin-1-yl]-ethyl]-cyclohexyl}-pyrrolidine-1-carboxamide] gave a melting point of 201 to 203 °C. Further, in series [1], the IC50 was in the range of 10 to 50 nM. In addition, the IC50 in series [2] is less than 1 nM. Further, the IC50 in series [3] is more than 200 nM.
